Read-outs that look alike come from different tables or passages of the source.
Tests used:
Myzus persicae [1] = test: Myzus persicae - spray test; format: in vivo; conditions: application rate of 500 g/ha, after 6 days, sprayed Chinese cabbage leaf discs infested by all stages, 100% = all aphids killed; for pest or weed control at 500 g/ha: Myzus persicae, foliar, 144 h, read-out: efficacy in %
In short: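 Chinese cabbage leaf discs infested with all stages of green peach aphid sprayed with compound in acetone/DMF formulation with alkylaryl polyglycol ether emulsifier, diluted in emulsifier-containing water. Efficacy (% aphids killed) assessed after 6 days.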

Myzus persicae [2] = test: Myzus persicae - sachet test; format: in vivo; conditions: 100% = all animals killed; for pest or weed control at 6 ppm / pest or weed control at 30 ppm: Myzus persicae, read-out: efficacy (kill in %)
In short: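 Green peach aphids feed through a sealed sachet on nutrient medium containing the water-diluted formulation (solvents: 2% N-methylpyrrolidone, 2% diacetone alcohol). Percent mortality read after the chosen time; 100% means all animals killed.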

[3] = log P determination by LC-MS in the acidic range; format: physicochemical; conditions: for log P (acid): LC-MS in the acidic range
Description: The LC-MS determination in the acidic range is effected at pH 2.7 using 0.1% aqueous formic acid and acetonitrile (contains 0.1% formic acid) as eluents, linear gradient from 10% acetonitrile to 95% acetonitrile. Alternatively, the determination is effected in the acidic range at pH 2.3 using 0.1% aqueous phosphoric acid and acetonitrile as eluents; linear gradient from 10% acetonitrile to 95% acetonitrile.

[4] = application rate of 6 ppm in nutrient medium
[5] = application rate of 30 ppm in nutrient medium
[6] = pH 2.7, LC-MS in the acidic range, read-out: log P (acid)
[7] = pH 2.7, values given in the synthesis examples and NMR lists, read-out: HPLC-MS: log P

Row | SMILES | log P (acid) [3] | chromatographic logP [3, 6] | chromatographic logP [3, 7] | efficacy in % (Myzus persicae [1]) | efficacy (kill in %) (Myzus persicae [2]; [4]) | efficacy (kill in %) (Myzus persicae [2]; [5]) | pest or weed control at 500 g/ha (Myzus persicae [1]) | pest or weed control at 6 ppm (Myzus persicae [2]; [4]) | pest or weed control at 30 ppm (Myzus persicae [2]; [5])
1 | Cc1cc(NC(=O)c2cccnc2)nn1CCCl [Compound I-1-33] | 1.16 | – | – | 100% | 100% | 100% | – | – | –
2 | Cc1cc(NC(=O)c2cccnc2)nn1Cc1ccccn1 [Compound I-1-6] | 0.88 | – | – | 90% | 100% | 100% | – | – | –
3 | O=C(Nc1ccn(Cc2ccccn2)n1)c1cccnc1 [Compound I-1-26] | 0.57 | – | – | 90% | 100% | 100% | – | – | –
4 | COCC(C)NC(=O)n1nc(NC(=O)c2cccnc2)cc1C (stereo not drawn) [Compound I-1-166] | 1.44 | – | – | 100% | 100% | 100% | – | – | –
5 | CCn1nc(NC(=O)c2cccnc2)cc1C [Compound I-1-38] | 0.93 | – | – | 100% | 100% | 100% | – | – | –
6 | Cc1cc(NC(=O)c2cccnc2)nn1CC(C)C [Compound I-1-12] | 1.59 | – | – | 80% | 100% | 100% | – | – | –
7 | Cc1cc(NC(=O)c2cccnc2)nn1CC[S+](C)[O-] (stereo not drawn) [Compound I-1-183] | 0.25 | – | – | 90% | 100% | 100% | – | – | –
8 | Cc1cc(NC(=O)c2cccnc2)nn1Cc1ccncc1 [Compound I-1-51] | 0.13 | – | – | 90% | 100% | 100% | – | – | –
9 | Cc1cc(NC(=O)c2cccnc2)nn1Cc1nccs1 [Compound I-1-14] | 1.05 | – | – | 80% | 100% | 100% | – | – | –
10 | Cc1cc(NC(=O)c2ccc[n+]([O-])c2)nn1Cc1ncccn1 [Compound I-1-128] | 0.55 | – | – | 90% | 100% | 100% | – | – | –
11 | Cc1cc(NC(=O)c2cccnc2)nn1Cn1nc(C2CC2)n(C2CC2)c1=O [Compound I-1-147] | 1.45 | – | – | 100% | 100% | 100% | – | – | –
12 | Cc1cc(NC(=O)c2cccnc2)nn1Cc1ncccc1C#N [Compound I-1-20] | 1.08 | – | – | 90% | 100% | 100% | – | – | –
13 | Cc1cc(NC(=O)c2cccnc2)nn1C [Compound I-1-3] | 0.63 | – | – | 90% | 100% | 100% | – | – | –
14 | Cc1cc(NC(=O)c2cccnc2)nn1C(C)C [Compound I-1-49] | 1.4 | – | – | 80% | 100% | 100% | – | – | –
15 | O=C(Nc1ccn(-c2ncc(C(F)(F)F)cc2Cl)n1)c1cccnc1 [Compound I-1-63] | 2.18 | – | – | 100% | – | 100% | – | – | –
16 | Cc1cc(NC(=O)c2cccnc2)nn1CC#N [Compound I-1-11] | 0.7 | – | – | 80% | 100% | 100% | – | – | –
17 | Cc1cc(NC(=O)c2cccnc2)nn1-c1ncccn1 [Compound I-1-23, N-[5-Methyl-1-(pyrimidin-2-yl)-1H-pyrazol-3-yl]nicotinamide] | – | 1.16 | 1.14 | – | – | – | 100% | 100% | 100%
18 | Cc1cc(C)nc(Cn2nc(NC(=O)c3cccnc3)cc2C)n1 [Compound I-1-36] | 1.2 | – | – | 90% | 100% | 100% | – | – | –
19 | Cc1cc(NC(=O)c2cccnc2)nn1CC(F)F [Compound I-1-4] | 1.05 | – | – | 100% | 100% | 100% | – | – | –
20 | Cn1nc(NC(=O)c2cccnc2)c2cccnc21 [Compound I-1-39] | 0.78 | – | – | 90% | 100% | 100% | – | – | –
21 | Cc1cc(NC(=O)c2cccnc2)nn1Cc1cn2cc(C(F)(F)F)ccc2n1 [Compound I-1-155] | 1.54 | – | – | 90% | 100% | 100% | – | – | –
22 | Cc1cc(NC(=O)c2cccnc2)nn1C(=O)NCCOC(F)(F)F [Compound I-1-172] | 1.91 | – | – | 90% | 100% | 100% | – | – | –

Second part, led by results:

Row | log P (acid) [3] | chromatographic logP [3, 6] | chromatographic logP [3, 7] | SMILES | efficacy in % (Myzus persicae [1]) | efficacy (kill in %) (Myzus persicae [2]; [4]) | efficacy (kill in %) (Myzus persicae [2]; [5]) | pest or weed control at 500 g/ha (Myzus persicae [1]) | pest or weed control at 6 ppm (Myzus persicae [2]; [4]) | pest or weed control at 30 ppm (Myzus persicae [2]; [5])
23 | 1.04 | – | – | Cc1cc(NC(=O)c2cccnc2)nn1C(=O)CCS(C)(=O)=O [Compound I-1-268] | 100% | 100% | 100% | – | – | –
24 | 0.86 | – | – | Cc1cc(NC(=O)c2cccnc2)nn1C(=O)N(C)C [Compound I-1-291] | 90% | 100% | 100% | – | – | –
25 | 0.58 | – | – | Cc1cc(NC(=O)c2cccnc2)nn1Cn1cncn1 [Compound I-1-224] | 100% | 100% | 100% | – | – | –
26 | 1.32 | – | – | Cc1cc(NC(=O)c2cccnc2)nn1Cc1ncnn1-c1ccccc1 [Compound I-1-304] | 100% | 100% | 100% | – | – | –
27 | 0.65 | – | – | Cc1cc(NC(=O)c2cccnc2)nn1Cn1ccnn1 [Compound I-1-223] | 100% | 100% | 100% | – | – | –
28 | – | 0.83 | 0.83 | CCS(=O)(=O)Cn1nc(NC(=O)c2cccnc2)cc1C [Compound I-1-246, N-{1-[(Ethylsulphonyl)methyl]-5-methyl-1H-pyrazol-3-yl}nicotinamide] | – | – | – | 100% | 100% | 100%
29 | 1.78 | – | – | Cc1cc(NC(=O)c2cccnc2)nn1C(=O)NCC1CCCCO1 (stereo not drawn) [Compound I-1-313] | 90% | 100% | 100% | – | – | –
30 | 1.75 | – | – | CC(C)=CCn1nc(NC(=O)c2cccnc2)cc1C [Compound I-1-239] | 90% | 100% | 100% | – | – | –
31 | 1.24 | – | – | Cc1cnn(Cn2nc(NC(=O)c3cccnc3)cc2C)c1 [Compound I-1-226] | 100% | 100% | 100% | – | – | –
32 | 2.18 | – | – | CCCC(C)NC(=O)n1nc(NC(=O)c2cccnc2)cc1C (stereo not drawn) [Compound I-1-318] | 90% | 100% | 100% | – | – | –
33 | 1.04 | – | – | Cn1nc(NC(=O)c2cccnc2)cc1C(F)F [Compound I-1-221] | 90% | 100% | 100% | – | – | –
34 | 1.83 | – | – | CCC(C)NC(=O)n1nc(NC(=O)c2cccnc2)cc1C (stereo not drawn) [Compound I-1-317] | 90% | 100% | 100% | – | – | –
35 | 0.64 | – | – | Cc1cc(NC(=O)c2cccnc2)nn1C(=O)NCc1cccnc1 [Compound I-1-330] | 90% | 100% | 100% | – | – | –
36 | 0.98 | – | – | C#CCN(C(=O)c1cccnc1)c1cc(C)n(Cc2ncccn2)n1 [Compound I-1-264] | 90% | 100% | 100% | – | – | –
37 | 1.09 | – | – | Cc1cc(NC(=O)c2cccnc2)nn1Cc1cc(C(=O)N(C)C)no1 [Compound I-1-298] | 90% | 100% | 100% | – | – | –
38 | 0.57 | – | – | Cc1cc(NC(=O)c2cccnc2)nn1CCC#N [Compound I-1-185] | 100% | 100% | 100% | – | – | –
39 | 1.17 | – | – | COCC(=O)n1nc(NC(=O)c2cccnc2)cc1C [Compound I-1-261] | 100% | 100% | 100% | – | – | –
40 | 1.43 | – | – | Cc1cc(C)nc(CNC(=O)n2nc(NC(=O)c3cccnc3)cc2C)n1 [Compound I-1-338] | 90% | 100% | 100% | – | – | –
41 | 0.84 | – | – | Cc1cc(NC(=O)c2cccnc2)nn1C(=O)NCC[S+](C)[O-] (stereo not drawn) [Compound I-1-308] | 90% | 100% | 100% | – | – | –
